Values joined by “and” are separate entries in the source; they are usually repeats but may differ in a detail not shown here. Identical values can stand only once. Like-named read-outs stand apart in the source and are kept apart here.

These results are taken from patent US20250257059A1, “PROTEIN TYROSINE PHOSPHATASE INHIBITORS AND USES THEREOF” (Nerio Therapeutics, Inc., priority 2022, published 2025).

Experiment [1] has as its system murine B16F10 melanoma cell line. In words: B16F10 IFNγ-induced cellular growth inhibition assay (xCELLigence RTCA). To be noted: B16F10 cells, 1 ng/mL mouse IFNγ, AUC of growth curve, read-out: B16 IFNγ Mediated Growth Inhibition Assay: AVG IC50. The experiment is classed as cell-based. Here is the method:
Compound activity was determined using an interferon gamma (IFNγ)-induced cellular growth inhibition assay with the murine B16F10 melanoma cell line on an Agilent xCELLigence Real-Time Cell Analysis platform (RTCA). RTCA E-Plate View 96 plates (Agilent, 300601010) were pre-equilibrated with 50 μL of assay media (DMEM+10% FBS, Gibco 10566-024, Gibco 10082-147) at 37° C. in a humidified incubator before taking an initial measurement of impedance (sweep). B16F10 cells cultured in assay media were dissociated with TrypLE Express (Gibco 12605-010) for five minutes at 37° C., diluted in 3 volumes of assay buffer, centrifuged for 5 minutes at 500×g at room temperature before diluting cells to 7,700 cells/mL in assay media, plating 130 μL/well (1,000 cells/well) in the inner 60 wells of the assay plate, and adding 150 μL of assay media to the outer wells of the plate. Cells were incubated at room temperature for 20 min to allow cells to settle before placing them in the xCELLigence reader and incubating overnight at 37° C., sweeping wells every 15 minutes. After 24 hours, well readings were paused, plates were removed from the incubator and compounds were added using a Tecan D300e dispenser. All wells were normalized to a final concentration of 0.5% DMSO. Following a 30 min incubation at 37° C., recombinant mouse IFNγ (R&D Systems™ 485MI100) was diluted to 10 ng/mL in assay media and 20 μL was added to assay wells (1 ng/mL final concentration). Assay plates were placed in the xCELLigence reader and swept every 15 minutes.

Experiment [2] deals with full-length human PTPN2 (TC45) (1-387) (Homo sapiens (Human), UniProt P17706). In words: Enzymatic assay used to determine potency of PTPN2 inhibitors (full length PTPN2 DiFMUP assay). The experiment is classed as biochemical. To be noted: 0.5 nM PTPN2, 100 μM DiFMUP, 30 min at room temperature. Here is the method:
Compound activity was determined in an in vitro enzymatic assay using untagged, full-length human PTPN2 (TC45) (1-387) protein. PTPN2 was produced in E. coli as a GST-TEV fusion and the GST was removed by TEV digestion, followed by additional purification to yield full-length PTPN2 (SEQ ID 1). PTPN2 enzyme was diluted in assay buffer (50 mM HEPES pH7.5, 0.2 mM EDTA, 1 mM DTT, 0.02% Brij-35, 0.02% BSA) to a final concentration of 0.5 nM and added to black 384-well non-binding plates (Greiner, 781900). Compounds were subsequently added using a Tecan D300e dispenser. Following a 10 min incubation at room temperature, DiFMUP substrate (ThermoFisher, D22065) was added to a final concentration of 100 μM. Plates were transferred to a SpectraMax plate reader (Molecular Devices) and fluorescence intensity was measured (ex 358, em 455) after a 30 min incubation at room temperature. […] A four-parameter curve fit was used to determine IC50 values from % inhibition data.

Chain of full-length human PTPN2 (TC45) (1-387) (P17706 other isoform, or with tags, fused parts or gaps): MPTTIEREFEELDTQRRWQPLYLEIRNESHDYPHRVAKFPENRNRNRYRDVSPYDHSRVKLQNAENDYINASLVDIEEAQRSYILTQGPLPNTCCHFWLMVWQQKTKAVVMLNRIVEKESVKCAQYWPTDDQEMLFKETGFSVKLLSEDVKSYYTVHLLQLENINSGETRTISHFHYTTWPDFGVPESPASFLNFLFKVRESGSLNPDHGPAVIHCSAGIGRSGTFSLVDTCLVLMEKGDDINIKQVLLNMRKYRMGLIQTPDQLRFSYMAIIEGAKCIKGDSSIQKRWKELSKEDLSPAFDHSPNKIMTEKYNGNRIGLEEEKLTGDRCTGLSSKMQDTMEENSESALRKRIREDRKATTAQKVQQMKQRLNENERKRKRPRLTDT

Take `CCCC1CCN(CCc2cc(O)c(N3CC(=O)NS3(=O)=O)c(F)c2)C1` (centres unmarked) [Example 86]: the half-inhibitory concentration (IC50) (usually the concentration that gives 50% inhibition) stood at 651 nM in experiment [1] (Mus musculus, B16-F10, 48 h) and 4 nM in experiment [2].
The matching figures for `O=C1CN(c2c(O)cc(CC3CCN(Cc4ncc[nH]4)C3)cc2F)S(=O)(=O)N1` (centres unmarked) [Example 17]: more than 52000 nM and 7 nM.
Regarding `CCCCN1CCCC(Cc2cc(O)c(N3CC(=O)NS3(=O)=O)c(F)c2)C1` (centres unmarked) [Example 38], the IC50 in experiment [1] (Mus musculus, B16-F10, 48 h) was more than 100000 nM; in experiment [2], 154 nM.
The matching figures for `CC1(C)CCN(CCc2cc(O)c(N3CC(=O)NS3(=O)=O)c(F)c2)CC1` [Example 93]: 475 nM and 3 nM.
The matching figures for `O=C1CN(c2c(O)cc(CCN3CCC4(CCC4)C3)cc2F)S(=O)(=O)N1` [Example 99]: 183 nM and 2 nM.
The matching figures for `O=C1CN(c2c(O)cc(CCC3CCNC3)cc2F)S(=O)(=O)N1` (centres unmarked) [Example 62]: more than 100000 nM and 16 nM.
For `CN(C)CCN1CCC(Cc2cc(O)c(N3CC(=O)NS3(=O)=O)c(F)c2)C1` (centres unmarked) [Example 3], the half-maximal inhibitory concentration (IC50) in experiment [1] (Mus musculus, B16-F10, 48 h) was more than 100000 nM; in experiment [2], 3 nM.
Taken in the same sequence, the figures for `CC1(C)CCN(CCc2cc(O)c(N3CC(=O)NS3(=O)=O)c(F)c2)C1` [Example 108] were 129 nM and 2 nM.
The matching figures for `CN1CCCC(Cc2cc(O)c(N3CC(=O)NS3(=O)=O)c(F)c2)C1` (centres unmarked) [Example 31, 5-(2-fluoro-6-hydroxy-4-((1-methylpiperidin-3-yl)methyl)phenyl)-1,2,5-thiadiazolidin-3-one 1,1-dioxide]: 29700 nM and 47 nM.
The matching figures for `CC(C)(C)C1CCN(CCc2cc(O)c(N3CC(=O)NS3(=O)=O)c(F)c2)CC1` [Example 118]: 3220 nM and 3 nM.
On to `O=C1CN(c2c(O)cc(CCN3CC4(CCC4)C3)cc2F)S(=O)(=O)N1` [Example 124], for which the IC50 amounted to 943 nM in experiment [1] (Mus musculus, B16-F10, 48 h) and 2 nM in experiment [2].
For `O=C1CN(c2c(O)cc(CC3CCCN(CCC4CCOCC4)C3)cc2F)S(=O)(=O)N1` (centres unmarked) [Example 40], the IC50 is 38600 nM in experiment [1] (Mus musculus, B16-F10, 48 h) and 46 nM in experiment [2].
For the compound `O=C1CN(c2c(O)cc(CC3CCCN(Cc4cnco4)C3)cc2F)S(=O)(=O)N1` (centres unmarked) [Example 48], the IC50 in experiment [1] (Mus musculus, B16-F10, 48 h) was more than 33000 nM; in experiment [2], 223 nM.
On to `O=C1CN(c2c(O)cc(CCN3CCC(F)C3)cc2F)S(=O)(=O)N1` (centres unmarked) [Example 92], for which the half-inhibitory concentration (IC50) in experiment [1] (Mus musculus, B16-F10, 48 h) amounted to 504 nM; in experiment [2], 3 nM.
On to `O=C1CN(c2c(O)cc(CCN3CC[C@H](C(F)(F)F)C3)cc2F)S(=O)(=O)N1` (single isomer, unassigned) [Example 123], for which the half-maximal inhibitory concentration (IC50) is 1840 nM in experiment [1] (Mus musculus, B16-F10, 48 h) and 2 nM in experiment [2].
The matching figures for `O=C1CN(c2c(O)cc(CC3CCN(Cc4cocn4)C3)cc2F)S(=O)(=O)N1` (centres unmarked) [Example 16]: 35800 nM and 16 nM.
On to `CC(C)CN1CCC(CCc2cc(O)c(N3CC(=O)NS3(=O)=O)c(F)c2)C1` (centres unmarked) [Example 63], for which the IC50 in experiment [1] (Mus musculus, B16-F10, 48 h) is more than 100000 nM; in experiment [2], 75 nM.
The matching figures for `O=C1CN(c2c(O)cc(CC3CCCN(Cc4ccco4)C3)cc2F)S(=O)(=O)N1` (centres unmarked) [Example 46]: more than 100000 nM and 75 nM.
Taken in the same sequence, the figures for `CCC1CN(CCc2cc(O)c(N3CC(=O)NS3(=O)=O)c(F)c2)C1` [Example 126] were 775 nM and 3 nM.
Taken in the same sequence, the figures for `O=C1CN(c2c(O)cc(CC3CCNC3)cc2F)S(=O)(=O)N1` (centres unmarked) [Example 27] were 9730 nM and 7 nM.
Turning to `O=C1CN(c2c(O)cc(CCN3CCC4(CCC4)CC3)cc2F)S(=O)(=O)N1` [Example 105], the 50% inhibitory concentration (IC50) in experiment [1] (Mus musculus, B16-F10, 48 h) turned out to be 219 nM; in experiment [2], 3 nM.
The matching figures for `CC(C)CN1CCCC1CCc1cc(O)c(N2CC(=O)NS2(=O)=O)c(F)c1` (centres unmarked) [Example 68]: more than 100000 nM and 46 nM.
The matching figures for `CCC1CCCN1CCc1cc(O)c(N2CC(=O)NS2(=O)=O)c(F)c1` (centres unmarked) [Example 84, 5-(4-(2-(2-ethylpyrrolidin-1-yl)ethyl)-2-fluoro-6-hydroxyphenyl)-1,2,5-thiadiazolidin-3-one 1,1-dioxide]: 13700 nM and 13 nM.
The matching figures for `O=C1CN(c2c(O)cc(CCN3CCNCC3)cc2F)S(=O)(=O)N1` [Example 100]: 51000 nM and 5 nM.
Consider `CC(C)CCN1CCC(CCc2cc(O)c(N3CC(=O)NS3(=O)=O)c(F)c2)C1` (centres unmarked) [Example 64], for which the IC50 is more than 100000 nM in experiment [1] (Mus musculus, B16-F10, 48 h) and 89 nM in experiment [2].
Turning to `CC(C)C[C@H]1CCN(CCc2cc(O)c(N3CC(=O)NS3(=O)=O)c(F)c2)C1` (single isomer, unassigned) [Example 119], the half-inhibitory concentration (IC50) in experiment [1] (48 hours) was 1600 nM; in experiment [1] (Mus musculus, B16-F10, 48 h), 2430 nM; in experiment [2], 2 nM and 3 nM.
Turning to `O=C1CN(c2c(O)cc(CC3CCCN(CC4CCC4)C3)cc2F)S(=O)(=O)N1` (centres unmarked) [Example 32], the IC50 in experiment [1] (Mus musculus, B16-F10, 48 h) turned out to be 14800 nM; in experiment [2], 35 nM.
The matching figures for `CC[C@H]1CCN(CCc2cc(O)c(N3CC(=O)NS3(=O)=O)c(F)c2)C1` [Example 109]: 162 nM and 3 nM.
Consider `O=C1CN(c2c(O)cc(CC3CCCN(Cc4cc[nH]c4)C3)cc2F)S(=O)(=O)N1` (centres unmarked) [Example 39], for which the IC50 was more than 100000 nM in experiment [1] (Mus musculus, B16-F10, 48 h) and 63 nM in experiment [2].
The matching figures for `CCCCCN1CCC(Cc2cc(O)c(N3CC(=O)NS3(=O)=O)c(F)c2)C1` (centres unmarked) [Example 24]: 5900 nM and 15 nM.
The matching figures for `O=C1CN(c2c(O)cc(C[C@H]3CCCNCC3)cc2F)S(=O)(=O)N1` (single isomer, unassigned) [Example 58]: more than 100000 nM and 51 nM.
The matching figures for `O=C1CN(c2c(O)cc(CC3CCN(CCN4CCCCC4)C3)cc2F)S(=O)(=O)N1` (centres unmarked) [Example 5]: 84600 nM and 7 nM.
On to `CCCCN1CCC(Cc2cc(O)c(N3CC(=O)NS3(=O)=O)c(F)c2)C1` (centres unmarked) [Example 8], for which the half-inhibitory concentration (IC50) was 18600 nM in experiment [1] (Mus musculus, B16-F10, 48 h) and 88 nM in experiment [2].
Taken in the same sequence, the figures for `O=C1CN(c2c(O)cc(CCN3CCC(C4CCC4)CC3)cc2F)S(=O)(=O)N1` [Example 121] were 2830 nM and 2 nM.
Taken in the same sequence, the figures for `O=C1CN(c2c(O)cc(CC3CCCN(CC4CCCO4)C3)cc2F)S(=O)(=O)N1` (centres unmarked) [Example 43] were 95900 nM and 63 nM.
Taken in the same sequence, the figures for `CCCCCCN1CCC(Cc2cc(O)c(N3CC(=O)NS3(=O)=O)c(F)c2)C1` (centres unmarked) [Example 13] were 36200 nM and 13 nM.
As for `CC(C)C1CN(CCc2cc(O)c(N3CC(=O)NS3(=O)=O)c(F)c2)C1` [Example 132], the results for the 50% inhibitory concentration (IC50) in experiment [1] (48 hours) and in experiment [2] were 579 nM and 3 nM, respectively.
Regarding `O=C1CN(c2c(O)cc(CC3CCCN(Cc4ccn[nH]4)C3)cc2F)S(=O)(=O)N1` (centres unmarked) [Example 53], the IC50 in experiment [1] (Mus musculus, B16-F10, 48 h) is more than 100000 nM; in experiment [2], 35 nM.
The matching figures for `C[C@@H]1CCN(CCc2cc(O)c(N3CC(=O)NS3(=O)=O)c(F)c2)C1` [Example 138]: 406 nM and 2 nM.
For the compound `CCC1CNCC1Cc1cc(O)c(N2CC(=O)NS2(=O)=O)c(F)c1` (centres unmarked) [Example 30], the 50% inhibitory concentration (IC50) in experiment [1] (Mus musculus, B16-F10, 48 h) was more than 13000 nM; in experiment [2], 13 nM.
Taken in the same sequence, the figures for `O=C1CN(c2c(O)cc(CCN3CC(CF)C3)cc2F)S(=O)(=O)N1` [Example 141] were 370 nM and 3 nM.
The matching figures for `O=C1CN(c2c(O)cc(CC3CCN(CC4CCOC4)C3)cc2F)S(=O)(=O)N1` (centres unmarked) [Example 15]: more than 48000 nM and 24 nM.
Taken in the same sequence, the figures for `CN1CCC(CCc2cc(O)c(N3CC(=O)NS3(=O)=O)c(F)c2)C1` (centres unmarked) [Example 61, 5-(2-fluoro-6-hydroxy-4-(2-(1-methylpyrrolidin-3-yl)ethyl)phenyl)-1,2,5-thiadiazolidin-3-one 1,1-dioxide] were more than 41000 nM and 19 nM.
Regarding `O=C1CN(c2c(O)cc(CC3CCN(Cc4ncco4)C3)cc2F)S(=O)(=O)N1` (centres unmarked) [Example 6], the concentration for half-maximal inhibition (IC50) in experiment [1] (Mus musculus, B16-F10, 48 h) is more than 100000 nM; in experiment [2], 20 nM.
